“And” between values parts separate entries of the source, which are not always exact repeats. Equal entries are not always repeated. Where two headings read alike, the source gives them in different places.
Legend:
[1] = tested on: influenza A/California/07/2009 (H1N1); test: microbe, parasite or virus in culture; format: cell-based, Influenza A Virus
Vero E6 cells = conditions: for Viability of Uninfected Vero E6 Cells (% Vehicle): 4-day treatment; for Viability of Uninfected Vero E6 Cells (A540): 4 days, individual replicates
[2] = tested on: SARS-CoV-2 (MEX-BC2/2020); test: Live SARS-CoV-2 CPE-based antiviral assay in Vero E6 cells (neutral red uptake); format: cell-based
glycoprotein B-2 (gpB-2) = glycoprotein B-2 (gpB-2) (Human herpesvirus 2, UniProt P08666); conditions: cited from earlier work
Ebola virus = conditions: cited from earlier work
gp120 = conditions: by binding gp120; cited from earlier work

Chain of glycoprotein B-2 (gpB-2) (P08666 23-904 limits assumed): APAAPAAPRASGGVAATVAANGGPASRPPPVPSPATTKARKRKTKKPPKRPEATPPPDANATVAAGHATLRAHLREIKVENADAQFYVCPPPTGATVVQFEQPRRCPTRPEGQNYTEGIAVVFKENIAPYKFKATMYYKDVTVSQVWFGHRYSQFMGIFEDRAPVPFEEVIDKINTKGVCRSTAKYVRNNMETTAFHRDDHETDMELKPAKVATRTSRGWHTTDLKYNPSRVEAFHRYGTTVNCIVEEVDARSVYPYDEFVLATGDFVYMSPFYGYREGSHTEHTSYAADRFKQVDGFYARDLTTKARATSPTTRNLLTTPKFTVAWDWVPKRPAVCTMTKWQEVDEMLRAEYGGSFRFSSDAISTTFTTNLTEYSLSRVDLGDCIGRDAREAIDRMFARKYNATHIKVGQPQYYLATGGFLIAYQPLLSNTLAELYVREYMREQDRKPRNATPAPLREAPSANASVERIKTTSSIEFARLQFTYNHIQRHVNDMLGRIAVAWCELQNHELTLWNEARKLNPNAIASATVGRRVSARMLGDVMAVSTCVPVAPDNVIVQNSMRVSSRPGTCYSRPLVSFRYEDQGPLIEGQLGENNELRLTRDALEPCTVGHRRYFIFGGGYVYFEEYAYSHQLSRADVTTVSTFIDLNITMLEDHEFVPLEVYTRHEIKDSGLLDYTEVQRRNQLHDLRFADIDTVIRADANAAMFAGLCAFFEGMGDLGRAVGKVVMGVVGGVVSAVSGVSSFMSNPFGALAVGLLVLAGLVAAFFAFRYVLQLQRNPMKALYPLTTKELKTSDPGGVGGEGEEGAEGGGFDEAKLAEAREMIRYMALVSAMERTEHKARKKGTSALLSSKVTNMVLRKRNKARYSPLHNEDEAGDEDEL

O=C1c2c(O)c(=O)ccn2N([C@@H]2c3ccccc3SCc3c2ccc(F)c3F)[C@@H]2COCCN12 [Baloxavir, baloxavir]
IAV Infectivity in A549 Cells (% Vehicle) ([1]; 0.01 nM, single data point): 95.3% | IVA Infectivity in A549 Cells (Absorbance 490 nm) ([1]; 0.01 nM, single data point): 1.064 | IAV Infectivity in A549 Cells (% Vehicle) ([1]; 0.06 nM, single data point): 86.9% | IVA Infectivity in A549 Cells (Absorbance 490 nm) ([1]; 0.06 nM, single data point): 1.000 | IAV Infectivity in A549 Cells (% Vehicle) ([1]; 0.32 nM, single data point): 64.4% | IVA Infectivity in A549 Cells (Absorbance 490 nm) ([1]; 0.32 nM, single data point): 0.828 | IAV Infectivity in A549 Cells (% Vehicle) ([1]; 1.6 nM, single data point): 17.7% | IVA Infectivity in A549 Cells (Absorbance 490 nm) ([1]; 1.6 nM, single data point): 0.471 | IAV Infectivity in A549 Cells (% Vehicle) ([1]; 8.0 nM, single data point): 6.1% | IVA Infectivity in A549 Cells (Absorbance 490 nm) ([1]; 8.0 nM, single data point): 0.383 | IAV Infectivity in A549 Cells (% Vehicle) ([1]; 40 nM, single data point): 5.6% | IVA Infectivity in A549 Cells (Absorbance 490 nm) ([1]; 40 nM, single data point): 0.379 | IAV Infectivity in A549 Cells (% Vehicle) ([1]; 0.2 μM, positive control): 6.0% | IVA Infectivity in A549 Cells (Absorbance 490 nm) ([1]; 0.2 μM, positive control, 48 hours, individual replicates, listed as BLX): 0.383 and 0.391 and 0.374 | IAV Infectivity in A549 Cells (% Vehicle) ([1]; 200 nM, single data point): 6.0% | IVA Infectivity in A549 Cells (Absorbance 490 nm) ([1]; 200 nM, single data point): 0.382 | IAV Infectivity in A549 Cells (% Vehicle) ([1]; 1,000 nM, single data point): 10.8% | IVA Infectivity in A549 Cells (Absorbance 490 nm) ([1]; 1,000 nM, single data point): 0.419 | IC50 ([1]; Influenza A virus, H1N1, control antiviral, single data points, A549 cells, 48 hours, read-out: IC50, IAV Antiviral Assay): 0.49 nM | block of infection ([1]; at some concentrations tested): over 99% | Viability in A549 cells (% Vehicle) (A549 cells; 0.2 μM): 102.0 ± 2.4%

C[S+](C)[O-] [DMSO, Dimethyl sulfoxide]
Viability of Uninfected Vero E6 Cells (% Vehicle) (Vero E6 cells; 10%, cytotoxic agent control): −0.2 ± 0.0% | Viability of Uninfected Vero E6 Cells (A540) (Vero E6 cells; 10%, cytotoxic agent control): 0.074 and 0.073 | block of cell viability (Vero E6 cells; tested at 10%): more than 99%

CCN(CC)CCCC(C)Nc1ccnc2cc(Cl)ccc12 (centres unmarked) [CQ, chloroquine diphosphate]
Absorbance (540 nm), SARS-CoV-2-induced CPE [2]: 0.985 and 1.011 | Inhibition of SARS-CoV-2 (MEX-BC2/2020) Virus-Induced CPE (%) ([2]; 5 μM, positive control wells): 61.8 ± 2.5% | Viability of Uninfected Vero E6 Cells (% Vehicle) (Vero E6 cells; 5 μM): 75.9 ± 2.6% | Viability of Uninfected Vero E6 Cells (A540) (Vero E6 cells; 5 μM): 1.206 and 1.262

polyphenylene carboxymethylene [PPCM]
binding to gpB-2, which prevents herpes attachment and fusion (glycoprotein B-2 (gpB-2)): binds | inhibition of Ebola virus (Ebola virus): inhibited | cell-to-cell transmission and primary infection by multiple clades of HIV-1 (gp120): prevents

CC[C@H]1CN2CCc3cc(OC)c(OC)cc3[C@@H]2C[C@@H]1C[C@H]1NCCc2cc(OC)c(OC)cc21 [Emetine]
inhibition of cell viability (A549 cells; 10 μM): greater than 85% | Viability in A549 cells (% Vehicle) (A549 cells; 10 μM, cytotoxic control): 14.0 ± 4.6% | Viability in A549 Cells (A490) (A549 cells; 10 μM, cytotoxic control, 48 hours, individual replicates): 0.236 and 0.179

N#C[C@@]1(c2ccc3c(N)ncnn23)O[C@H](CO)[C@@H](O)[C@H]1O [GS-441524]
Inhibition of SARS-CoV-2 (MEX-BC2/2020) Virus-Induced CPE (%) ([2]; 0.03 μM, single data point): −7.0% | Inhibition of SARS-CoV-2 (MEX-BC2/2020) Virus-Induced CPE (%) ([2]; 0.25 μM, single data point): 51.9% | Inhibition of SARS-CoV-2 (MEX-BC2/2020) Virus-Induced CPE (%) ([2]; 0.74 μM, single data point): 89.7% | prevention of the virus-induced CPE ([2]; 1 μM): completely prevented | Inhibition of SARS-CoV-2 (MEX-BC2/2020) Virus-Induced CPE (%) ([2]; 1 μM, positive control wells): 112.3 ± 24.4% | Inhibition of SARS-CoV-2 (MEX-BC2/2020) Virus-Induced CPE (%) ([2]; 2.2 μM, single data point): 89.9% | Inhibition of SARS-CoV-2 (MEX-BC2/2020) Virus-Induced CPE (%) ([2]; 6.7 μM, single data point): 96.3% | Inhibition of SARS-CoV-2 (MEX-BC2/2020) Virus-Induced CPE (%) ([2]; 10 μM, positive control wells): 117.2 ± 5.4% | prevention of the virus-induced CPE of the infected cells ([2]; control inhibitor, concentration not given): prevented completely | IC50 ([2]; control inhibitor, single data points, Vero E6, 96 hours): 170 nM | Viability of Uninfected Vero E6 Cells (A540) (Vero E6 cells; 1 μM): 1.404 and 1.753 | loss of viability in uninfected cells (Vero E6 cells; 10 μM): no significant loss of viability | Viability of Uninfected Vero E6 Cells (A540) (Vero E6 cells; 10 μM): 1.616
